IC50 and Activity data for one compound are collected here from ChEMBL document CHEMBL4118205, “Design, synthesis and biological evaluation of artemisinin derivatives containing fluorine atoms as anticancer agents” (Bioorg Med Chem Lett, 2018).

The test system of experiment [1] is L02. Briefly: Cytotoxicity against human L02 cells assessed as reduction in cell viability after 72 hrs by MTT assay. The experiment is classed as functional, cell-based. To be noted: L02, 72 h. For orientation: Tetrazolium assays rely on reduction of a dye to a coloured formazan, in cell work by metabolically active cells.
In experiment [2] the test system is MDA-MB-231. Briefly: Cytotoxicity against human MDA-MB-231 cells assessed as reduction in cell viability after 72 hrs by MTT assay. The experiment is classed as functional, cell-based. To be noted: MDA-MB-231, 72 h.
In experiment [3] the test system is MCF7. Briefly: Cell cycle arrest in human MCF7 cells assessed as accumulation at S phase at 1 uM after 48 hrs by propidium iodide staining based flow cytometry (reference value: 41.55%). The experiment is classed as functional. (Flow cytometry measures light scatter and fluorescence of single cells or particles in a stream.)
Experiment [4] relates to MCF7. The experiment in a line: Cell cycle arrest in human MCF7 cells assessed as accumulation at G1 phase at 5 uM after 48 hrs by propidium iodide staining based flow cytometry (reference value: 45.21%). It is filed as functional.
In experiment [5] the test system is MCF7. Briefly: Induction of apoptosis in human MCF7 cells assessed as early apoptotic cells at 2.5 uM after 48 hrs by Annexin-V FITC/propidium iodide staining based flow cytometry (reference value: 0.50%). It is filed as functional.
Experiment [6] has as its system MCF7. The experiment in a line: Cell cycle arrest in human MCF7 cells assessed as accumulation at S phase at 10 uM after 48 hrs by propidium iodide staining based flow cytometry (reference value: 41.55%). It is filed as functional.
Experiment [7] deals with MCF7. The experiment in a line: Induction of apoptosis in human MCF7 cells assessed as necrotic cells at 5 uM after 48 hrs by Annexin-V FITC/propidium iodide staining based flow cytometry (reference value: 4.69%). The experiment is classed as functional.
Experiment [8] relates to MCF7. The experiment in a line: Induction of apoptosis in human MCF7 cells assessed as early apoptotic cells at 5 uM after 48 hrs by Annexin-V FITC/propidium iodide staining based flow cytometry (reference value: 0.50%). It is filed as functional.
The test system of experiment [9] is MCF7. The experiment in a line: Induction of apoptosis in human MCF7 cells assessed as late apoptotic cells at 1 uM after 48 hrs by Annexin-V FITC/propidium iodide staining based flow cytometry (reference value: 6.22%). It is filed as functional.
Experiment [10] has as its system MCF7. The experiment in a line: Induction of apoptosis in human MCF7 cells assessed as late apoptotic cells at 20 uM after 48 hrs by Annexin-V FITC/propidium iodide staining based flow cytometry (reference value: 6.22%). It is filed as functional.

Regarding `C[C@H]1[C@H](N2CCN(C(=O)Nc3ccc(OC(F)(F)F)cc3)CC2)O[C@@H]2O[C@@]3(C)CC[C@H]4[C@H](C)CC[C@@H]1[C@@]24OO3`, the half-inhibitory concentration (IC50) (as a rule, the midpoint of a concentration-inhibition curve) was determined as 6.7 µM in experiment [1] and 8.4 µM in experiment [2]. Moreover, the Activity in experiment [3] came out at 33.33%; in experiment [4], 76.68%; in experiment [5], 0.66%; in experiment [6], 9.2%; in experiment [7], 21.51%; in experiment [8] it was 1.38%. In addition, the Activity in [9] is on record as 7.01%; in experiment [10] it was 68.8%.
